# Test results taken from US12329745B2, “Methods and compositions for treating glucocorticoid excess” (Sparrow Pharmaceuticals, Inc., priority 2022, dated 2025).
# Assays:
# brain HSD-1 = biological target: T1, brain HSD-1 (Homo sapiens, UniProt P28845); test: Brain HSD-1 occupancy by PET, competition with [11C]AS2471907; type: in vivo; details: single dose 3 mg
# T1 construct: Brain HSD-1 occupancy following a single dose of SPI-62 3 mg; from tissue; host or cells: brain in vivo
# Description: Brain HSD-1 occupancy following a single dose of SPI-62 3 mg, assessed by competition with the HSD-1-specific PET ligand [^11C]AS2471907, was 84-90% at 3.3 to 25 hours, 56-83% at 42 to 46 hours, 36 to 45% at 139 hours, and 26% at 189 hours. The pharmacologic half-life of SPI-62 in brain is, as expected, shorter than that in liver.
# HSD-1 = HSD-1 (Homo sapiens, UniProt P28845); test: Surface plasmon resonance binding kinetics in presence of NADPH (residence time); details: 300 μM NADPH; reciprocal of the dissociation rate constant; read-out: Residence Time (converted)
# Description: Pseudo-irreversible HSD-1 inhibitors can be identified via in vitro enzyme kinetics evaluation, in which they are expected to show longer enzyme residence times compared to other HSD-1 inhibitors. Surface plasmon resonance (SPR) is the resonant oscillation of conduction electrons at the interface between negative and positive permittivity material stimulated by incident light. When a protein is bound to a surface, SPR can be used to detect ligand binding to the protein. […] Association and dissociation of test compounds were monitored in the presence of 300 µM NADPH throughout the experiment.
# purified human HSD-1 = purified human HSD-1 (Homo sapiens, UniProt P28845); test: In vitro inhibition of purified human HSD-1; type: biochemical
# [1] = biological target: T2, human HSD-1 expressed in CHO cells (Homo sapiens, UniProt P28845); test: Inhibition of human HSD-1 expressed in CHO cells; type: cell-based
# T2 construct: expressed in transfected cells; host or cells: CHO cells
# [2] = Phase 2 trial 3662-CL-0049 in painful diabetic peripheral neuropathy: TC, glucose, HbA1c, TG; type: in vivo, human
# Description: Analyses of covariance were conducted to analyze total cholesterol (TC), glucose, glycated hemoglobin (HbA1c), and triglycerides (TG), with baseline value as the covariate and a baseline*treatment interaction term, in patients with painful diabetic peripheral neuropathy following daily administration of SPI-62 or placebo. Data were obtained from study 3662-CL-0049, a Phase 2 randomized, double-blind, placebo- and active-controlled clinical trial of the safety and efficacy of SPI-62 in subjects with painful diabetic peripheral neuropathy.
# [3] = Clinical effective daily dose and side effects of HSD-1 inhibitors; details: human, in vivo
# Description: Pseudo-irreversible HSD-1 inhibitors might have additional advantages over other HSD-1 inhibitors. For example, with durable pharmacologic effect, pseudo-irreversible HSD-1 inhibitors are more amenable to less than daily dosing including depot formulations and less likely to show decreased efficacy based on imperfect patient compliance. Additionally, HSD-1 in the human body appears to become completely occupied with approximately 3 mg of a potent small molecule inhibitor. Because pseudo-irreversible inhibitors, once bound, distribute only slowly off HSD-1 a low chronic dose is possible. Several pseudo-irreversible HSD-1 inhibitors, such as SPI-62, ABT-384, MK-0736, and MK-0916, have effective dose ranges below 10 mg daily.
# liver HSD-1 = liver HSD-1 (Homo sapiens, UniProt P28845); test: Urinary HSD-1 ratio (tetrahydrocortisol+allotetrahydrocortisol)/tetrahydrocortisone; type: in vivo; design: from tissue; host or cells: human liver in vivo, read through urinary steroid metabolites; details: for mean urinary HSD-1 ratio, reduction from baseline: 0.7 mg daily
# Description: The tetrahydro metabolites are rapidly and extensively excreted in urine. […] Continued adrenal synthesis provides a circulating pool of cortisol, the free fraction of which (˜5%) enters cells. That prevents the urinary HSD-1 ratio from dropping below approximately 0.1.
# Sequence of liver HSD-1 (P28845 whole entry): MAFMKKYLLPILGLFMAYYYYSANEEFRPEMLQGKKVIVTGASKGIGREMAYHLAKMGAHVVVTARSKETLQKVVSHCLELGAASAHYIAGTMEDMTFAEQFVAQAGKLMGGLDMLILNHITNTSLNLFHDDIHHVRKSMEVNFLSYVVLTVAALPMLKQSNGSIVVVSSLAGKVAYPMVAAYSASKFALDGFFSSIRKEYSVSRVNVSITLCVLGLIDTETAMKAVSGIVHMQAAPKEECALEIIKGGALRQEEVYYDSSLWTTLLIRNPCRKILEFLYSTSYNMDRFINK
# T1 sequence (P28845 whole entry): as above
# Sequence of purified human HSD-1 (P28845 whole entry): as above
# T2 sequence (P28845 whole entry): as above
# Sequence of HSD-1 (P28845 whole entry): as above
compound,measurement,setting,value
"Cn1c(-c2ccc(C(N)=O)cc2F)nnc1C(C)(C)Oc1c(F)cc(Cl)cc1F [SPI-62, 4-(5-(2-(4-chloro-2,6-difluorophenoxy)propan-2-yl)-4-methyl-4H-1,2,4-triazol-3-yl)-3-fluorobenzamide]",brain HSD-1 occupancy,brain HSD-1; 3.3 to 25 hours,84-90%
same,brain HSD-1 occupancy,brain HSD-1; 42 to 46 hours,56-83%
same,residence time,HSD-1,8.92 min
same,IC50,purified human HSD-1,17 nM
same,Ki,purified human HSD-1,5.3 nM
same,Ki,[1],12.6 nM
same,"Glucose, least squares mean (standard error)",[2]; Week 6/EOT,7.61 (0.556) mmol/L
same,"HbA1c, least squares mean (standard error)",[2]; Week 6/EOT,7.1%
same,"TG, least squares mean (standard error)",[2]; Week 6/EOT,1.68 (0.202) mmol/L
same,"TC, least squares mean (standard error)","[2]; Week 6/EOT, N = 36",3.95 (0.120) mmol/L
same,"Glucose, least squares mean (standard error)",[2]; Week 8/EOS,7.78 (0.546) mmol/L
same,"HbA1c, least squares mean (standard error)",[2]; Week 8/EOS,7.02%
same,"TC, least squares mean (standard error)",[2]; Week 8/EOS,4.16 (0.105) mmol/L
same,"TG, least squares mean (standard error)",[2]; Week 8/EOS,1.63 (0.113) mmol/L
same,effective dose range,[3],below 10 mg daily
same,mean reduction of the urinary HSD-1 ratio from baseline,"liver HSD-1; 0.2 mg daily for 14 days, last dosing day",87%
same,time after the last dose with incomplete return of urinary HSD-1 ratio to baseline,liver HSD-1; healthy adults,more than 2 weeks
same,"mean urinary HSD-1 ratio, reduction from baseline","liver HSD-1; healthy adults, 16±2 days after cessation",55%
same,"mean urinary HSD-1 ratio, reduction from baseline","liver HSD-1; healthy adults, last dosing day",84%
same,mean urinary HSD-1 ratio,"liver HSD-1; patients, 10 mg daily for 6 weeks, 2 weeks after the last dose",0.33
same,mean urinary HSD-1 ratio,"liver HSD-1; patients, 10 mg daily for 6 weeks, last dosing day",0.13
same,mean urinary HSD-1 ratio,"liver HSD-1; single 1 mg dose, urine 0 to 6 hours post-dose",0.694
same,mean urinary HSD-1 ratio,"liver HSD-1; single 1 mg dose, urine 6 to 12 hours post-dose",0.471
same,mean urinary HSD-1 ratio,"liver HSD-1; single 1 mg dose, urine 12 to 24 hours post-dose",0.472
same,mean urinary HSD-1 ratio,"liver HSD-1; single 1 mg dose, urine 24 to 48 hours post-dose",0.522
same,mean urinary HSD-1 ratio,"liver HSD-1; single 1 mg dose, urine 48 to 72 hours post-dose",0.618
same,mean difference v placebo of the urinary HSD-1 ratio,liver HSD-1; single dose 1 mg,51%
